Patent US9738634B2, “Heterocyclic amide compound and herbicide” (SYNGENTA PARTICIPATIONS AG, priority 2013, dated 2017)

Columns and labels:
Type in all cases: in vivo
transplanted rice = experiment: Test Example 1: preemergent weed treatment in the submerged state, effect on crop; a: transplanted rice
Source text: (§1) Weedkilling efficacy test on preemergent weed treatment in the submerged state
(§2) Alluvial soil was introduced into 1/10,000 Are Wagner pots, and 4 cm depth submerged conditions were created by addition of water and mixing. Seeds of barnyard grass, bulrush and oval-leafed pondweed were mixed and sown into the aforesaid cups, then 2.5 leaf stage rice seedlings were transplanted. On the sowing day, emulsions of compounds of the present invention prepared according to compounding example 2 were diluted with water to give the specified dosages and applied onto the water surface. The plants were grown after placing the cups in a greenhouse at 25 to 30° C. 3 weeks after the pesticide treatment the effect on each type of plant was investigated on the basis of the following assessment criteria.
(§3) A: barnyard grass, B: bulrush, C: oval-leafed pondweed, D: crabgrass, E: green foxtail, F: barnyard grass, G: wild oat, H: black-grass, I: Italian ryegrass, J: common wind-grass, K: Indian mallow, L: redroot pigweed, M: fig-leafed goosefoot, N: chickweed, O: catchweed, p: birds-eye speedwell, a: transplanted rice, b: directly sown rice, c: corn, d: soybean, e: wheat, f: beet, g: rapeseed
(§4) Further, pesticide dosage (g/ha) indicates the concentration regulated such that treatment was with only the stated number of grams (g), when calculated per hectare (ha).

barnyard grass [1] = experiment: Test Example 2: weedkilling efficacy, growth period weed treatment in the submerged state; A: barnyard grass
Experimental: (§5) Weedkilling efficacy test on growth period weed treatment in the submerged state
as §2, with “and the plants were grown by placing in a greenhouse at 25 to 30° C. When the barnyard grass, bulrush and oval-leafed pondweed had reached the 1-2” for “then 2.5”, “stage,” for “stage rice seedlings were transplanted. On the sowing day,”, “surface.” for “surface. The plants were grown after placing the cups in a greenhouse at 25 to 30° C.”, “the” for “the following”, “criteria of test example 1.” for “criteria.”
as §3, §4

barnyard grass [2] = experiment: Test Example 1: weedkilling efficacy, preemergent weed treatment in the submerged state; A: barnyard grass
Source text: as §1, §2, §3, §4

oval-leafed pondweed [3] = experiment: Test Example 2: weedkilling efficacy, growth period weed treatment in the submerged state; C: oval-leafed pondweed
Experimental: as §5
as §2, with “and the plants were grown by placing in a greenhouse at 25 to 30° C. When the barnyard grass, bulrush and oval-leafed pondweed had reached the 1-2” for “then 2.5”, “stage,” for “stage rice seedlings were transplanted. On the sowing day,”, “surface.” for “surface. The plants were grown after placing the cups in a greenhouse at 25 to 30° C.”, “the” for “the following”, “criteria of test example 1.” for “criteria.”
as §3, §4

bulrush [4] = experiment: Test Example 1: weedkilling efficacy, preemergent weed treatment in the submerged state; B: bulrush
Source text: as §1, §2, §3, §4

bulrush [5] = experiment: Test Example 2: weedkilling efficacy, growth period weed treatment in the submerged state; B: bulrush
Experimental: as §5
as §2, with “and the plants were grown by placing in a greenhouse at 25 to 30° C. When the barnyard grass, bulrush and oval-leafed pondweed had reached the 1-2” for “then 2.5”, “stage,” for “stage rice seedlings were transplanted. On the sowing day,”, “surface.” for “surface. The plants were grown after placing the cups in a greenhouse at 25 to 30° C.”, “the” for “the following”, “criteria of test example 1.” for “criteria.”
as §3, §4

oval-leafed pondweed [6] = experiment: Test Example 1: weedkilling efficacy, preemergent weed treatment in the submerged state; C: oval-leafed pondweed
Source text: as §1, §2, §3, §4

Row | SMILES | a: transplanted rice, effect on crop grade (transplanted rice; treatment dosage 252 g/ha) | A (barnyard grass) weedkilling efficacy grade (barnyard grass [1]; treatment dosage 252 g/ha) | A: barnyard grass, weed kill grade (barnyard grass [2]; treatment dosage 252 g/ha) | C (oval-leafed pondweed) weedkilling efficacy grade (oval-leafed pondweed [3]; treatment dosage 252 g/ha) | B: bulrush, weed kill grade (bulrush [4]; treatment dosage 252 g/ha) | B (bulrush) weedkilling efficacy grade (bulrush [5]; treatment dosage 252 g/ha) | C: oval-leafed pondweed, weed kill grade (oval-leafed pondweed [6]; treatment dosage 252 g/ha) | a: transplanted rice, effect on crop grade (transplanted rice; treatment dosage 320 g/ha) | A (barnyard grass) weedkilling efficacy grade (barnyard grass [1]; treatment dosage 320 g/ha) | A: barnyard grass, weed kill grade (barnyard grass [2]; treatment dosage 320 g/ha) | C (oval-leafed pondweed) weedkilling efficacy grade (oval-leafed pondweed [3]; treatment dosage 320 g/ha) | B: bulrush, weed kill grade (bulrush [4]; treatment dosage 320 g/ha) | B (bulrush) weedkilling efficacy grade (bulrush [5]; treatment dosage 320 g/ha) | C: oval-leafed pondweed, weed kill grade (oval-leafed pondweed [6]; treatment dosage 320 g/ha) | further results
1 | CC(C)(C(=O)Nc1nc(Cl)cc(Cl)n1)N1COCN(c2ccccc2)C1=O [A-1-19] | 0 (weed kill ratio 5% or less (practically no effect)) | 3 (weed kill ratio 40% or more, less than 70%) | 2 (weed kill ratio 20% or more, less than 40%) | 2 (weed kill ratio 20% or more, less than 40%) | 3 (weed kill ratio 40% or more, less than 70%) | 2 (weed kill ratio 20% or more, less than 40%) | 2 (weed kill ratio 20% or more, less than 40%) | – | – | – | – | – | – | – | –
2 | CC(C)(C(=O)Nc1cc(Cl)cc(Cl)n1)N1COCN(c2ccccc2)C1=O [A-2-17] | 3 (weed kill ratio 40% or more, less than 70%) | 5 (weed kill ratio 90% or more, (practically complete withering)) | 5 (weed kill ratio 90% or more, (practically complete withering)) | 5 (weed kill ratio 90% or more, (practically complete withering)) | 5 (weed kill ratio 90% or more, (practically complete withering)) | 5 (weed kill ratio 90% or more, (practically complete withering)) | 5 (weed kill ratio 90% or more, (practically complete withering)) | – | – | – | – | – | – | – | –
3 | CC(C)(C(=O)Nc1cc(Cl)cc(Cl)n1)N1COCN(c2ccccc2)C1=S [A-2-18] | – | – | – | – | – | – | – | 0 (weed kill ratio 5% or less (practically no effect)) | 5 (weed kill ratio 90% or more, (practically complete withering)) | 5 (weed kill ratio 90% or more, (practically complete withering)) | 5 (weed kill ratio 90% or more, (practically complete withering)) | 5 (weed kill ratio 90% or more, (practically complete withering)) | 5 (weed kill ratio 90% or more, (practically complete withering)) | 5 (weed kill ratio 90% or more, (practically complete withering)) | –
4 | CC(C)(C(=O)Nc1cccc(C(F)F)n1)N1COCN(c2ccccc2)C1=O [A-2-41] | – | – | – | – | – | – | – | – | – | – | – | – | – | – | a: transplanted rice, effect on crop grade (transplanted rice; treatment dosage 315 g/ha): 0 (weed kill ratio 5% or less (practically no effect)); A (barnyard grass) weedkilling efficacy grade (barnyard grass [1]; treatment dosage 315 g/ha): 5 (weed kill ratio 90% or more, (practically complete withering)); A: barnyard grass, weed kill grade (barnyard grass [2]; treatment dosage 315 g/ha): 5 (weed kill ratio 90% or more, (practically complete withering)); C (oval-leafed pondweed) weedkilling efficacy grade (oval-leafed pondweed [3]; treatment dosage 315 g/ha): 5 (weed kill ratio 90% or more, (practically complete withering)); B: bulrush, weed kill grade (bulrush [4]; treatment dosage 315 g/ha): 5 (weed kill ratio 90% or more, (practically complete withering)); B (bulrush) weedkilling efficacy grade (bulrush [5]; treatment dosage 315 g/ha): 5 (weed kill ratio 90% or more, (practically complete withering)); C: oval-leafed pondweed, weed kill grade (oval-leafed pondweed [6]; treatment dosage 315 g/ha): 5 (weed kill ratio 90% or more, (practically complete withering))
5 | CC(C)(C(=O)Nc1cc(C(F)(F)F)ccn1)N1COCN(c2ccccc2)C1=O [A-2-42] | 4 (weed kill ratio 70% or more, less than 90%) | 5 (weed kill ratio 90% or more, (practically complete withering)) | 5 (weed kill ratio 90% or more, (practically complete withering)) | 5 (weed kill ratio 90% or more, (practically complete withering)) | 5 (weed kill ratio 90% or more, (practically complete withering)) | 5 (weed kill ratio 90% or more, (practically complete withering)) | 5 (weed kill ratio 90% or more, (practically complete withering)) | – | – | – | – | – | – | – | –
6 | CC(C)(C(=O)Nc1ccc(C(F)(F)F)cn1)N1COCN(c2ccccc2)C1=O [A-2-43] | – | – | – | – | – | – | – | 0 (weed kill ratio 5% or less (practically no effect)) | 2 (weed kill ratio 20% or more, less than 40%) | 3 (weed kill ratio 40% or more, less than 70%) | 2 (weed kill ratio 20% or more, less than 40%) | 5 (weed kill ratio 90% or more, (practically complete withering)) | 4 (weed kill ratio 70% or more, less than 90%) | 5 (weed kill ratio 90% or more, (practically complete withering)) | –
